Data published in the NIST ThermoML archive (doi:10.1016/j.fluid.2017.03.021).
Numbers after ± are expanded uncertainties.

Legend:
[1] = 101.33 kPa, Liquid; for speed of sound: Sing-around technique in a fixed-path interferometer; for mass density: Vibrating tube method
[2] = molar heat capacity at constant pressure; conditions: 101.33 kPa, Liquid, DSC

CCCC[n+]1ccn(C2CCCC2)c1.O=S(=O)([N-]S(=O)(=O)C(F)(F)F)C(F)(F)F
Conditions | mass density, [1] [kg/m3] | molar heat capacity at constant pressure, [2] [J/K/mol] | speed of sound, [1] [m/s]
287.15 K | 1384.9 ± 10 | – | 1298.1 ± 5
289.15 K | 1383.1 ± 10 | – | 1293.1 ± 5
291.15 K | 1381.2 ± 10 | – | 1288.1 ± 5
293.15 K | 1379.4 ± 10 | 648.54 ± 25 | 1283.2 ± 5
294.15 K | – | 649.39 ± 25 | –
295.15 K | 1377.5 ± 10 | 650.01 ± 25 | 1278.3 ± 5
296.15 K | – | 650.62 ± 25 | –
297.15 K | 1375.7 ± 10 | 651.28 ± 25 | 1273.4 ± 5
298.15 K | – | 651.99 ± 25 | –
299.15 K | 1373.8 ± 10 | 652.8 ± 25 | 1268.6 ± 5
300.15 K | – | 653.46 ± 25 | –
301.15 K | 1372 ± 10 | 654.08 ± 25 | 1263.8 ± 5
302.15 K | – | 654.84 ± 25 | –
303.15 K | 1370.2 ± 10 | 655.4 ± 25 | 1259 ± 5
304.15 K | – | 656.21 ± 25 | –
305.15 K | 1368.4 ± 10 | 657.01 ± 25 | 1254.2 ± 5
306.15 K | – | 657.63 ± 25 | –
307.15 K | 1366.5 ± 10 | 658.43 ± 26 | 1249.4 ± 5
308.15 K | – | 659.14 ± 26 | –
309.15 K | 1364.7 ± 10 | 659.9 ± 26 | 1244.7 ± 5
310.15 K | – | 660.66 ± 26 | –
311.15 K | 1362.9 ± 10 | 661.42 ± 26 | 1240 ± 5
312.15 K | – | 662.22 ± 26 | –
313.15 K | 1361.1 ± 10 | 663.07 ± 26 | 1235.3 ± 5
314.15 K | – | 663.88 ± 26 | –
315.15 K | 1359.3 ± 10 | 664.73 ± 26 | 1230.6 ± 5
316.15 K | – | 665.35 ± 26 | –
317.15 K | 1357.5 ± 10 | 666.15 ± 26 | 1226 ± 5
318.15 K | – | 666.77 ± 26 | –
319.15 K | 1355.7 ± 10 | 667.43 ± 26 | 1221.4 ± 5
320.15 K | – | 668.19 ± 26 | –
321.15 K | 1353.9 ± 10 | 668.94 ± 26 | 1216.7 ± 5
322.15 K | – | 669.75 ± 26 | –
323.15 K | 1352.1 ± 10 | 670.51 ± 26 | 1212.1 ± 5
324.15 K | – | 671.26 ± 26 | –
325.15 K | 1350.3 ± 10 | 672.02 ± 26 | 1207.6 ± 5
326.15 K | – | 672.78 ± 26 | –
327.15 K | 1348.5 ± 9.9 | 673.49 ± 26 | 1203 ± 5
328.15 K | – | 674.44 ± 26 | –
329.15 K | 1346.7 ± 9.9 | 675.15 ± 26 | 1198.5 ± 5
330.15 K | – | 675.95 ± 26 | –
331.15 K | 1344.9 ± 9.9 | 676.8 ± 26 | 1193.9 ± 5
332.15 K | – | 677.56 ± 26 | –
333.15 K | 1343.1 ± 9.8 | 678.41 ± 26 | 1189.4 ± 5
334.15 K | – | 679.22 ± 26 | –
335.15 K | 1341.3 ± 9.8 | 680.21 ± 26 | 1185 ± 5
336.15 K | – | 680.88 ± 26 | –
337.15 K | 1339.6 ± 9.8 | 681.63 ± 26 | 1180.5 ± 5
338.15 K | – | 682.34 ± 26 | –
339.15 K | 1337.8 ± 9.8 | 683.01 ± 26 | 1176.1 ± 5
340.15 K | – | 683.91 ± 26 | –
341.15 K | 1336 ± 9.7 | 684.76 ± 27 | 1171.7 ± 5
342.15 K | – | 685.47 ± 27 | –
343.15 K | 1334.3 ± 9.7 | 686.27 ± 27 | 1167.3 ± 5
344.15 K | – | 686.94 ± 27 | –
345.15 K | – | 687.65 ± 27 | –
346.15 K | – | 688.45 ± 27 | –
347.15 K | – | 689.07 ± 27 | –
348.15 K | – | 690.11 ± 27 | –

CCCCC[n+]1ccn(CCCC)c1.O=S(=O)([N-]S(=O)(=O)C(F)(F)F)C(F)(F)F
Conditions | mass density, [1] [kg/m3] | molar heat capacity at constant pressure, [2] [J/K/mol] | speed of sound, [1] [m/s]
287.15 K | 1327.3 ± 9.6 | – | 1239.6 ± 5
289.15 K | 1325.5 ± 9.6 | – | 1234.8 ± 5
291.15 K | 1323.7 ± 9.6 | – | 1230 ± 5
293.15 K | 1321.9 ± 9.5 | 683.58 ± 26 | 1225.3 ± 5
294.15 K | – | 684.63 ± 27 | –
295.15 K | 1320.1 ± 9.5 | 685.3 ± 27 | 1220.6 ± 5
296.15 K | – | 685.96 ± 27 | –
297.15 K | 1318.3 ± 9.5 | 686.63 ± 27 | 1216 ± 5
298.15 K | – | 687.34 ± 27 | –
299.15 K | 1316.5 ± 9.5 | 687.96 ± 27 | 1211.3 ± 5
300.15 K | – | 688.62 ± 27 | –
301.15 K | 1314.7 ± 9.4 | 689.29 ± 27 | 1206.7 ± 5
302.15 K | – | 690 ± 27 | –
303.15 K | 1312.9 ± 9.4 | 690.67 ± 27 | 1202.1 ± 5
304.15 K | – | 691.38 ± 27 | –
305.15 K | 1311.1 ± 9.4 | 692.05 ± 27 | 1197.6 ± 5
306.15 K | – | 692.76 ± 27 | –
307.15 K | 1309.4 ± 9.4 | 693.52 ± 27 | 1193 ± 5
308.15 K | – | 694.28 ± 27 | –
309.15 K | 1307.6 ± 9.3 | 694.95 ± 27 | 1188.5 ± 5
310.15 K | – | 695.57 ± 27 | –
311.15 K | 1305.8 ± 9.3 | 696.23 ± 27 | 1184 ± 5
312.15 K | – | 697.09 ± 27 | –
313.15 K | 1304 ± 9.3 | 697.9 ± 27 | 1179.6 ± 5
314.15 K | – | 698.7 ± 27 | –
315.15 K | 1302.3 ± 9.2 | 699.42 ± 27 | 1175.1 ± 5
316.15 K | – | 700.08 ± 27 | –
317.15 K | 1300.5 ± 9.2 | 700.84 ± 27 | 1170.7 ± 5
318.15 K | – | 701.65 ± 27 | –
319.15 K | 1298.8 ± 9.2 | 702.37 ± 27 | 1166.3 ± 5
320.15 K | – | 703.22 ± 27 | –
321.15 K | 1297 ± 9.2 | 703.98 ± 27 | 1161.8 ± 5
322.15 K | – | 704.74 ± 27 | –
323.15 K | 1295.2 ± 9.1 | 705.5 ± 27 | 1157.5 ± 5
324.15 K | – | 706.26 ± 27 | –
325.15 K | 1293.5 ± 9.1 | 707.07 ± 27 | 1153.1 ± 5
326.15 K | – | 707.83 ± 27 | –
327.15 K | 1291.7 ± 9.1 | 708.69 ± 27 | 1148.7 ± 5
328.15 K | – | 709.54 ± 27 | –
329.15 K | 1290 ± 9.1 | 710.35 ± 28 | 1144.4 ± 5
330.15 K | – | 711.07 ± 28 | –
331.15 K | 1288.3 ± 9 | 711.87 ± 28 | 1140.1 ± 5
332.15 K | – | 712.64 ± 28 | –
333.15 K | 1286.5 ± 9 | 713.4 ± 28 | 1135.8 ± 5
334.15 K | – | 714.16 ± 28 | –
335.15 K | 1284.8 ± 9 | 714.87 ± 28 | 1131.5 ± 5
336.15 K | – | 715.68 ± 28 | –
337.15 K | 1283 ± 9 | 716.44 ± 28 | 1127.3 ± 5
338.15 K | – | 717.2 ± 28 | –
339.15 K | 1281.3 ± 9 | 718.01 ± 28 | 1123 ± 5
340.15 K | – | 718.67 ± 28 | –
341.15 K | 1279.6 ± 8.9 | 719.43 ± 28 | 1118.8 ± 5
342.15 K | – | 719.96 ± 28 | –
343.15 K | 1277.8 ± 8.9 | 720.62 ± 28 | 1114.7 ± 5
344.15 K | – | 721.24 ± 28 | –
345.15 K | – | 721.86 ± 28 | –
346.15 K | – | 722.48 ± 28 | –
347.15 K | – | 723.29 ± 28 | –
348.15 K | – | 724.47 ± 28 | –
